Experimental data from patent US20110217202A1, “ACTIVE OXYGEN DISINFECTION SYSTEM AND USE THEREOF” (priority 2010, published 2011).

What was measured:
S. marcescens = assay: Photosensitizer with or without H2O2 or PHMB, rate of kill, S. marcescens; format: cell-based
Description: All solutions (testing and control) are then incubated for about 5 minutes at 37° C. in the dark in an orbital incubator prior to exposure to the relevant light conditions. […]
(§1) After incubation overnight, the colony forming units at the dilution where they can best be counted are quantified and number of colony forming units per mL calculated.
In all instances the bacterial challenge is at least 5×10^5 cfu/mL. SoftWear Saline (providing 0.003% H2O2), photosensitizer solutions are made up at double the concentration to be tested using the SoftWear Saline as the diluent. 2.5 mLs of this solution is then mixed with 2.5 mLs of bacteria to form the test solutions.
In all instances the bacterial challenge is at least 5×10^5 cfu/mL. Solutions containing the photosensitizers and PHMB are made up separately at quadruple the concentration to be tested.

P. aeruginosa = assay: Photosensitizer rate of kill under light exposure, P. aeruginosa; format: cell-based
Description: P. aeruginosa is grown in nutrient broth for about 18 hours to bring the bacteria into the logarithmic growth phase prior to being spun down via centrifugation and the pellet resuspended in sterile phosphate buffered saline (PBS). The bacterial suspension is then diluted to obtain an OD of 0.9 at 540 nm. This stock bacterial solution is subsequently diluted 1 in 500 to obtain a test solution containing about 10^5-10^6 cfu/ml.
A solution of one of the five photosensitizers is made at double the concentration to be tested.
A testing solution (lens care solution) is prepared by adding 5 mL of a photosensitizer solution to 5 mL of the bacterial solution.
Two control solutions are prepared by adding 5 mL of sterile PBS to 5 mL of the bacterial solution. One of the two control solutions is kept in the dark (i.e., Control Dark) and the other one is exposed to the same light conditions as the photosensitizer test solutions (i.e., Control Light).
All solutions (testing and control) are then incubated for about 5 minutes at 37° C. in the dark in an orbital incubator prior to exposure to the relevant light conditions. The light source used provides broad spectrum visible light and the temperature is controlled using a fan.
as §1
All solutions are then incubated for about 5 minutes at 37° C. in the dark in an orbital incubator prior to exposure to the relevant light conditions.
Two light sources are used to assess antibacterial activity of the range of photosensitizers. One is a broad spectrum light source which emits light across visible spectrum. […] The other light source used is a red LED, which emits light of a single wavelength at 630 nm.
The red LED light source emits with a power of 27 mW/cm2. In both instances, the power is measured using an ILT-1400 A Radiometer/Photometer.
as §1

C. albicans = assay: Photosensitizer with PHMB, rate of kill, C. albicans; format: cell-based; conditions: 10 μg/mL with 0.00005% PHMB; LED 630 nm; one hour; about 10^7 cfu/ml
Description: All materials used and the method used to determine the rate of bacterial kill are described in Example 1 as was the method. In all instances the bacterial challenge is at least 5×10^5 cfu/mL. Solutions containing the photosensitizers and PHMB are made up separately at quadruple the concentration to be tested. 1.25 mLs of each solution is then added to 2.5 mLs of bacteria suspension to render the correct concentration to be tested.
Where a testing solution contains 10 μg/mL TMPyP and 0.00005% PHMB, a 5 Log reduction in bacterial viability against about 10^7 cfu/ml C. albicans is observed after one hour of light exposure to a LED (630 nm).

[1] = dissociation constant of the dibasic compound; cited from earlier work
[2] = 5 μg/mL, red light/LED 630 nm, one hour, about 10^5 cfu/ml
[3] = 10 μg/mL, broad spectrum light source, about 45 minutes, about 10^5 cfu/ml

CN(C)c1ccc2nc3ccc(=[N+](C)C)cc-3sc2c1 [MB, Methylene Blue]
Log reduction in bacterial viability (S. marcescens; 20 μg/mL, free of H2O2, red LED 630 nm, one hour, about 10^5 cfu/ml): no reduction in bacterial viability

O=C1OC2(c3cc(I)c(O)c(I)c3Oc3c2cc(I)c(O)c3I)c2c(Cl)c(Cl)c(Cl)c(Cl)c21 [RB, Rose Bengal]
Log reduction in bacterial viability (S. marcescens; 10 μg/mL with 0.00005% PHMB, LED 630 nm, 15 minutes, about 10^5 cfu/ml): 2 Log
further reduction in bacterial viability on additional light exposure (S. marcescens; 10 μg/mL with 0.00005% PHMB, LED 630 nm, additional light exposure up to one hour): does not reduce bacterial viability
Log reduction in bacterial viability (S. marcescens; 10 μg/mL with 0.003% H2O2, LED 630 nm, about 10^5 cfu/ml): no reduction in bacterial viability
Log reduction in bacterial viability (S. marcescens; 10 μg/mL, free of H2O2 or PHMB, LED 630 nm, about 10^5 cfu/ml): no reduction in bacterial viability
Log reduction in bacterial viability (P. aeruginosa; about 250 μg/mL, broad spectrum visible light, 30 minutes, about 10^5 cfu/ml): 5-6 Log

Cc1cc2nc3ccc(N(C)C)cc3[s+]c2cc1N.[Cl-] [TBO, Toluidine Blue O]
Log reduction in bacterial viability (S. marcescens; 0.625 μg/mL with 0.00005% PHMB, LED 630 nm, about 15 minutes, about 10^5 cfu/ml): 3 Log
Log reduction in bacterial viability (S. marcescens; 0.625 μg/mL with 0.00005% PHMB, LED 630 nm, about 30 minutes, about 10^5 cfu/ml): 5-6 Log
Log reduction in bacterial viability (S. marcescens; 1.25 μg/mL with 0.00005% PHMB, red LED 630 nm, about 15 minutes, about 10^5 cfu/ml): 3 Log
Log reduction in bacterial viability (S. marcescens; 1.25 μg/mL with 0.00005% PHMB, red LED 630 nm, about 45 minutes, about 10^5 cfu/ml): 5-6 Log
Log reduction in bacterial viability (S. marcescens; 2.5 μg/mL with 0.00005% PHMB, red LED 630 nm, about 30 minutes, about 10^5 cfu/ml): 5-6 Log
Log reduction in bacterial viability (S. marcescens; 2.5 μg/mL with 0.0005% PHMB, red LED 630 nm, about 15 minutes, about 10^5 cfu/ml): 5-6 Log
Log reduction in bacterial viability (S. marcescens; 2.5 μg/mL with 0.003% H2O2, red LED 630 nm, 30 minutes, about 10^5 cfu/ml): 5-6 Log
Log reduction in bacterial viability (S. marcescens; 5 μg/mL only, free of H2O2, red LED 630 nm, 45 minutes): 5-6 Log
Log reduction in bacterial viability (P. aeruginosa; 5 μg/mL, broad spectrum light source, about 30 minutes, about 10^5 cfu/ml): 5-6 Log
Log reduction in bacterial viability (P. aeruginosa; [2]): 5-6 Log
Log reduction in bacterial viability (P. aeruginosa; [3]): 5-6 Log
Log reduction in bacterial viability (P. aeruginosa; 50 μg/mL, broad spectrum light source, between 30 to 45 minutes, about 10^5 cfu/ml): 3 Log
reduction in bacterial viability (P. aeruginosa; 250 μg/mL, broad spectrum visible light, time not stated, about 10^5 cfu/ml): no reduction in bacterial viability
Rate of kill (Log reduction in bacterial viability) (P. aeruginosa; 375 μg/mL, broad spectrum visible light, 30 minutes light exposure, about 10^5 cfu/ml): 5-6 Log
Time of Light Exposure (P. aeruginosa; 375 μg/mL, broad spectrum visible light, time for the stated rate of kill): 30 min
Rate of kill (Log reduction in bacterial viability) (P. aeruginosa; 500 μg/mL, broad spectrum visible light, 15 minutes light exposure, about 10^5 cfu/ml): 5-6 Log
Time of Light Exposure (P. aeruginosa; 500 μg/mL, broad spectrum visible light, time for the stated rate of kill (Table 2)): 15 min

C[n+]1ccc(-c2c3nc(c(-c4cc[n+](C)cc4)c4ccc([nH]4)c(-c4cc[n+](C)cc4)c4nc(c(-c5cc[n+](C)cc5)c5ccc2[nH]5)C=C4)C=C3)cc1.Cc1ccc(S(=O)(=O)[O-])cc1.Cc1ccc(S(=O)(=O)[O-])cc1.Cc1ccc(S(=O)(=O)[O-])cc1.Cc1ccc(S(=O)(=O)[O-])cc1 [TMPyP, tetra(N-methyl-4-pyridyl)porphine tetratosylate]
Log reduction in bacterial viability (C. albicans): 5 Log
Log reduction in bacterial viability (S. marcescens; 10 μg/mL with 0.00005% PHMB, red LED 630 nm, about 45 minutes, about 10^5 cfu/ml): 3 Log
Log reduction in bacterial viability (S. marcescens; 10 μg/mL with 0.0005% PHMB, red LED 630 nm, about 15 minutes, about 10^5 cfu/ml): 5-6 Log
Log reduction in bacterial viability (S. marcescens; 10 μg/mL with 0.003% H2O2, red LED 630 nm, one hour, about 10^5 cfu/ml): about 3 Log
Log reduction in bacterial viability (P. aeruginosa; 5 μg/mL, broad spectrum light source, one hour, about 10^5 cfu/ml): 2 Log
Log reduction in bacterial viability (P. aeruginosa; 5 μg/mL, broad spectrum light source, two hours, about 10^5 cfu/ml): 5-6 Log
Log reduction in bacterial viability (P. aeruginosa; [2]): 2 Log
Log reduction in bacterial viability (P. aeruginosa; [3]): 5-6 Log
Log reduction in bacterial viability (P. aeruginosa; 10 μg/mL, red LED 630 nm, about 45 minutes, about 10^5 cfu/ml): 5-6 Log
Rate of kill (Log reduction in bacterial viability) (P. aeruginosa; 50 μg/mL, broad spectrum visible light, 45 minutes light exposure, about 10^5 cfu/ml): 5-6 Log
Time of Light Exposure (P. aeruginosa; 50 μg/mL, broad spectrum visible light, time for the stated rate of kill): 45 min
Rate of kill (Log reduction in bacterial viability) (P. aeruginosa; 250 μg/mL, broad spectrum visible light, 45 minutes light exposure, about 10^5 cfu/ml): 5-6 Log
Time of Light Exposure (P. aeruginosa; 250 μg/mL, broad spectrum visible light, time for the stated rate of kill): 45 min
Rate of kill (Log reduction in bacterial viability) (P. aeruginosa; 500 μg/mL, broad spectrum visible light, 30 minutes light exposure, about 10^5 cfu/ml): 5-6 Log
Time of Light Exposure (P. aeruginosa; 500 μg/mL, broad spectrum visible light, time for the stated rate of kill (Table 1)): 30 min

Cl.Cl.O=S(=O)(O)c1ccc(-c2c3nc(c(-c4ccc(S(=O)(=O)O)cc4)c4ccc([nH]4)c(-c4ccc(S(=O)(=O)O)cc4)c4nc(c(-c5ccc(S(=O)(=O)O)cc5)c5ccc2[nH]5)C=C4)C=C3)cc1 [TSPP, meso-tetra(4-sulfonatophenyl)porphine dihydrochloride]
biocidal activity (P. aeruginosa; about 1 mg/mL, broad spectrum visible light, about 10^5 cfu/ml): no significant biocidal activity

OCC(CO)(CO)NCCCNC(CO)(CO)CO [bis-TRIS-propane, 1,3-bis(tris[hydroxymethyl]methylamino)propane]
pKa1 [1]: 6.8
pKa2 [1]: 9.5

polyhexamethylene biguanide [PHMB]
Log reduction in bacterial viability (S. marcescens; 0.00005% PHMB without any sensitizer, one hour, about 10^5 cfu/ml): 1 Log
